Laboratory results from patent publication US11000033B2, “Ketone or oxime compound, and herbicide” (NISSAN CHEMICAL CORPORATION, priority 2014, dated 2021).

What was measured:
Format in all cases: in vivo
[1] = test system: Echinochloa oryzacola Vasing.; test: Test Example 1: herbicidal activity, application before weed generation in submerged conditions (symbol A); details: application herbicide amount 320 g/ha
Summary of the method: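 In a flooded pot test with alluvial soil, the emulsion-formulated compound was diluted with water to a predetermined amount and applied to the floodwater immediately on the sowing day. Pots were held in a greenhouse at 25–30 °C for 3 weeks before each weed was rated.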

[2] = test system: transplanted rice plant; test: Test Example 1: effect on crop, application before weed generation in submerged conditions (symbol a); details: application herbicide amount 320 g/ha
Summary of the method: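 Rice at 2.5 leaf stage transplanted into submerged soil (4 cm depth) sown with three weed species; herbicide applied before weed emergence.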

[3] = test system: Echinochloa crus-galli var. crus-galli; test: Test Example 3: herbicidal effect by foliage application, Wagner pot (symbol H); details: application herbicide amount 320 g/ha
Summary of the method: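 Plants sown in submerged alluvial soil (water depth 0.1–0.5 cm) in a 25–30 °C greenhouse and grown 14 days. An emulsion of the compound diluted in water to a set herbicide amount was sprayed uniformly on foliage. Effect on each plant scored 3 weeks after application.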

[4] = test system: Setaria viridis; test: Test Example 4: herbicidal effect by soil treatment (symbol G)
Summary of the method: (§1)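 Seeds were sown in sterilized diluvial soil, covered with about 1.5 cm of soil, and the soil surface was sprayed with a water-diluted emulsion of the compound at a predetermined rate. Plants grew in a greenhouse at 25° C. to 30° C.; effects were scored visually 3 weeks after application.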

[5] = test system: Lolium multiflorum Lam.; test: Test Example 4: herbicidal effect by soil treatment (symbol K)
Summary of the method: as §1

[6] = test system: Amaranthus retroflexus; test: Test Example 4: herbicidal effect by soil treatment (symbol N)
Summary of the method: as §1

[7] = test system: Stellaria media; test: Test Example 4: herbicidal effect by soil treatment (symbol P)
Summary of the method: as §1

[8] = test system: wheat; test: Test Example 4: effect on crop by soil treatment (symbol e); details: for e: wheat, effect on crop grade: application herbicide amount 320 g/ha; for e: wheat, effect grade on crop: 320 g/ha
Summary of the method: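 Soil-treatment setup: crop and weed seeds were spot-sown into sterilized diluvial soil, then buried beneath approximately 1.5 cm of it, and the boxes were housed in a 25–30° C. greenhouse.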

[9] = test system: Setaria viridis; test: Test Example 5: herbicidal effect by foliage application, plastic box (symbol G); details: 320 g/ha, 3 weeks after application
Summary of the method: (§2)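 Herbicide, formulated as an emulsion and diluted in water, is sprayed onto the aerial parts of 14-day seedlings. These were grown at 25° C. to 30° C. in sterilized diluvial soil; effects are graded after 3 weeks.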

[10] = test system: Avena fatua; test: Test Example 5: herbicidal effect by foliage application, plastic box (symbol I); details: 320 g/ha, 3 weeks after application
Summary of the method: as §2

[11] = test system: Abutilon theophrasti; test: Test Example 5: herbicidal effect by foliage application, plastic box (symbol M); details: 320 g/ha, 3 weeks after application
Summary of the method: as §2

[12] = test system: Amaranthus retroflexus; test: Test Example 5: herbicidal effect by foliage application, plastic box (symbol N); details: 320 g/ha, 3 weeks after application
Summary of the method: as §2

[13] = test system: Stellaria media; test: Test Example 5: herbicidal effect by foliage application, plastic box (symbol P); details: 320 g/ha, 3 weeks after application
Summary of the method: as §2

[14] = test system: wheat; test: Test Example 5: effect on crop by foliage application, plastic box (symbol e); details: 320 g/ha, 3 weeks after application
Summary of the method: (§3)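 Crop and weed seeds sown in spots in sterilized diluvial soil in plastic boxes and covered with about 1.5 cm soil. Plants raised in a greenhouse at 25° C. to 30° C. for foliar application.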

[15] = test system: beet; test: Test Example 5: effect on crop by foliage application, plastic box (symbol f); details: 320 g/ha, 3 weeks after application
Summary of the method: as §3

[16] = application herbicide amount 320 g/ha

| SMILES | Herbicidal effect grade, A: Echinochloa oryzacola Vasing. [1] | Effect grade on crop, a: transplanted rice plant [2] | herbicidal effect on H (Echinochloa crus-galli var. crus-galli), grade 0-5 [3] | G: Setaria viridis, herbicidal effect grade [4, 16] | K: Lolium multiflorum Lam., herbicidal effect grade [5, 16] | N: Amaranthus retroflexus, herbicidal effect grade [6, 16] | P: Stellaria media, herbicidal effect grade [7, 16] | e: wheat, effect on crop grade [8] | G: Setaria viridis, herbicidal effect grade [9] | I: Avena fatua, herbicidal effect grade [10] | M: Abutilon theophrasti, herbicidal effect grade [11] | N: Amaranthus retroflexus, herbicidal effect grade [12] | P: Stellaria media, herbicidal effect grade [13] | e: wheat, effect on crop grade [14] | f: beet, effect on crop grade [15] | G: Setaria viridis, herbicidal effect grade ([4]; 320 g/ha) | K: Lolium multiflorum Lam., herbicidal effect grade ([5]; 320 g/ha) | N: Amaranthus retroflexus, herbicidal effect grade ([6]; 320 g/ha) | P: Stellaria media, herbicidal effect grade ([7]; 320 g/ha) | e: wheat, effect grade on crop [8] | further results |
| --- | --- | --- | --- | --- | --- | --- | --- | --- | --- | --- | --- | --- | --- | --- | --- | --- | --- | --- | --- | --- | --- |
| CON=C(C)CC1CC(O)=C(c2c(C)cc(-c3ccc(OC)cc3)cc2C)C1=O (mixture of isomers) [6-017] | 5 (Herbicidal ratio of 90% or more (almost completely withered)) | 5 (Herbicidal ratio of 90% or more (almost completely withered)) | 5 (Herbicidal ratio of 90% or more (almost completely withered)) | 5 (Herbicidal ratio of 90% or more (almost completely withered)) | 4 (Herbicidal ratio of 70% or higher and lower than 90%) | 1 (Herbicidal ratio of 5% or higher and lower than 20%) | 0 (Herbicidal ratio of 5% or lower (almost no effect)) | 0 (Herbicidal ratio of 5% or lower (almost no effect)) | 5 (Herbicidal ratio of 90% or more (almost completely withered)) | 5 (Herbicidal ratio of 90% or more (almost completely withered)) | 0 (Herbicidal ratio of 5% or lower (almost no effect)) | 0 (Herbicidal ratio of 5% or lower (almost no effect)) | 1 (Herbicidal ratio of 5% or higher and lower than 20%) | 1 (Herbicidal ratio of 5% or higher and lower than 20%) | 0 (Herbicidal ratio of 5% or lower (almost no effect)) |  |  |  |  |  |  |
| CON=C(C)CC1CC(OC(=O)c2ccc(C(F)(F)F)cc2)=C(c2c(C)cc(C)cc2C)C1=O (stereo not drawn) [1-149] | 5 (Herbicidal ratio of 90% or more (almost completely withered)) | 5 (Herbicidal ratio of 90% or more (almost completely withered)) | 5 (Herbicidal ratio of 90% or more (almost completely withered)) |  |  |  |  |  |  |  |  |  |  |  |  | 5 (Herbicidal ratio of 90% or more (almost completely withered)) | 5 (Herbicidal ratio of 90% or more (almost completely withered)) | 4 (Herbicidal ratio of 70% or higher and lower than 90%) | 0 (Herbicidal ratio of 5% or lower (almost no effect)) | 5 (Herbicidal ratio of 90% or more (almost completely withered)) | G: Setaria viridis, herbicidal effect (criteria 0-5) [9]: 5 (Herbicidal ratio of 90% or more (almost completely withered)); I: Avena fatua, herbicidal effect (criteria 0-5) [10]: 5 (Herbicidal ratio of 90% or more (almost completely withered)); M: Abutilon theophrasti, herbicidal effect (criteria 0-5) [11]: 4 (Herbicidal ratio of 70% or higher and lower than 90%); N: Amaranthus retroflexus, herbicidal effect (criteria 0-5) [12]: 0 (Herbicidal ratio of 5% or lower (almost no effect)); P: Stellaria media, herbicidal effect (criteria 0-5) [13]: 3 (Herbicidal ratio of 40% or higher and lower than 70%); e: wheat, effect on crop (criteria 0-5) [14]: 5 (Herbicidal ratio of 90% or more (almost completely withered)); f: beet, effect on crop (criteria 0-5) [15]: 2 (Herbicidal ratio of 20% or higher and lower than 40%) |
| C=Cc1cc(C)c(C2=C(O)CC(CC(C)=NOC)C2=O)c(C)c1 (mixture of isomers) [6-031] | 3 (Herbicidal ratio of 40% or higher and lower than 70%) | 1 (Herbicidal ratio of 5% or higher and lower than 20%) | 3 (Herbicidal ratio of 40% or higher and lower than 70%) | 0 (Herbicidal ratio of 5% or lower (almost no effect)) | 3 (Herbicidal ratio of 40% or higher and lower than 70%) | 4 (Herbicidal ratio of 70% or higher and lower than 90%) | 0 (Herbicidal ratio of 5% or lower (almost no effect)) | 0 (Herbicidal ratio of 5% or lower (almost no effect)) | 5 (Herbicidal ratio of 90% or more (almost completely withered)) | 5 (Herbicidal ratio of 90% or more (almost completely withered)) | 2 (Herbicidal ratio of 20% or higher and lower than 40%) | 0 (Herbicidal ratio of 5% or lower (almost no effect)) | 0 (Herbicidal ratio of 5% or lower (almost no effect)) | 0 (Herbicidal ratio of 5% or lower (almost no effect)) | 0 (Herbicidal ratio of 5% or lower (almost no effect)) |  |  |  |  |  |  |
| CON=C(C)CC1CC(OC(=O)c2ccccc2OC(F)(F)F)=C(c2c(C)cc(C)cc2C)C1=O (stereo not drawn) [1-155] | 5 (Herbicidal ratio of 90% or more (almost completely withered)) | 5 (Herbicidal ratio of 90% or more (almost completely withered)) | 5 (Herbicidal ratio of 90% or more (almost completely withered)) |  |  |  |  |  |  |  |  |  |  |  |  | 5 (Herbicidal ratio of 90% or more (almost completely withered)) | 5 (Herbicidal ratio of 90% or more (almost completely withered)) | 5 (Herbicidal ratio of 90% or more (almost completely withered)) | 0 (Herbicidal ratio of 5% or lower (almost no effect)) | 3 (Herbicidal ratio of 40% or higher and lower than 70%) | G: Setaria viridis, herbicidal effect (criteria 0-5) [9]: 5 (Herbicidal ratio of 90% or more (almost completely withered)); I: Avena fatua, herbicidal effect (criteria 0-5) [10]: 5 (Herbicidal ratio of 90% or more (almost completely withered)); M: Abutilon theophrasti, herbicidal effect (criteria 0-5) [11]: 4 (Herbicidal ratio of 70% or higher and lower than 90%); N: Amaranthus retroflexus, herbicidal effect (criteria 0-5) [12]: 2 (Herbicidal ratio of 20% or higher and lower than 40%); P: Stellaria media, herbicidal effect (criteria 0-5) [13]: 2 (Herbicidal ratio of 20% or higher and lower than 40%); e: wheat, effect on crop (criteria 0-5) [14]: 5 (Herbicidal ratio of 90% or more (almost completely withered)); f: beet, effect on crop (criteria 0-5) [15]: 2 (Herbicidal ratio of 20% or higher and lower than 40%) |
| CCOC(=O)C(C(=O)Cc1ccccc1)C1CC(O)=C(c2c(C)cc(C)cc2C)C1=O (stereo not drawn) [2-011] | 0 (Herbicidal ratio of 5% or lower (almost no effect)) | 0 (Herbicidal ratio of 5% or lower (almost no effect)) | 0 (Herbicidal ratio of 5% or lower (almost no effect)) | 0 (Herbicidal ratio of 5% or lower (almost no effect)) | 0 (Herbicidal ratio of 5% or lower (almost no effect)) | 0 (Herbicidal ratio of 5% or lower (almost no effect)) | 0 (Herbicidal ratio of 5% or lower (almost no effect)) | 0 (Herbicidal ratio of 5% or lower (almost no effect)) | 0 (Herbicidal ratio of 5% or lower (almost no effect)) | 0 (Herbicidal ratio of 5% or lower (almost no effect)) | 0 (Herbicidal ratio of 5% or lower (almost no effect)) | 0 (Herbicidal ratio of 5% or lower (almost no effect)) | 0 (Herbicidal ratio of 5% or lower (almost no effect)) | 0 (Herbicidal ratio of 5% or lower (almost no effect)) | 0 (Herbicidal ratio of 5% or lower (almost no effect)) |  |  |  |  |  |  |
